Consider eleven compounds from PubChem BioAssay (NCI).

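48-hour exposure; five concentrations; linearly interpolated endpoints. Here, GI50 denotes the concentration required for 50% inhibition of growth. Definition used: TGI = concentration required for complete inhibition of growth.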

Some test systems named below: MCF7 breast; TK-10 renal; M14 melanoma; A549 NSCLC; SK-MEL-28 melanoma; UACC-257 melanoma; HOP-62 NSCLC; MOLT-4 leukemia; SF-295 CNS; HCC-2998 colon.
Holding throughout (experiment): inhibition of tumour cell growth, NCI panel, 48 h

With `COC1=C(C)C(=O)c2c(c(COC(N)=O)c3n2CC2C3N2C)C1=O` (stereo not given), the TGI in the assay with MCF7 breast was below 0.027 µM; in the assay on TK-10 renal, 0.0542 µM; in the assay on M14 melanoma, 0.0641 µM; with A549 NSCLC, 0.0645 µM; in the assay on SK-MEL-28 melanoma it was 0.173 µM; in the assay on UACC-257 melanoma, 0.0641 µM. Besides, the TGI in the assay with HOP-62 NSCLC came to 0.074 µM; in the assay with MOLT-4 leukemia it was 0.104 µM; with SF-295 CNS, 0.0261 µM.
Take `O=S(=O)(N=S(c1ccccc1)c1ccccc1)c1ccccc1`: the TGI in the assay on MCF7 breast, with TK-10 renal, with M14 melanoma, in the assay with A549 NSCLC, with SK-MEL-28 melanoma and in the assay on UACC-257 melanoma was above 100 µM throughout. In addition, the TGI in the assay on HOP-62 NSCLC, in the assay with MOLT-4 leukemia and in the assay with SF-295 CNS was above 100 µM each time.
For `N#CCN1C(=O)c2cccc3cc([N+](=O)[O-])cc(c23)C1=O`, the TGI with TK-10 renal was 95.6 µM; with M14 melanoma, above 100 µM; in the assay with HCC-2998 colon, above 100 µM; in the assay with A549 NSCLC it was above 100 µM; in the assay on SK-MEL-28 melanoma, above 100 µM; in the assay on UACC-257 melanoma, 83.1 µM. Moreover, the TGI in the assay on HOP-62 NSCLC, with MOLT-4 leukemia and in the assay with SF-295 CNS was above 100 µM throughout.
Turning to `Cc1cc(Cl)ccc1N=C1NC(=O)C(CC(=O)Nc2ccc([N+](=O)[O-])cc2[N+](=O)[O-])S1` (stereo not given), the TGI is above 100 µM in the assay on TK-10 renal; 59.8 µM in the assay on M14 melanoma; above 100 µM in the assay with HCC-2998 colon; 85.9 µM in the assay on A549 NSCLC; above 100 µM in the assay with SK-MEL-28 melanoma; 90.3 µM in the assay with UACC-257 melanoma. Further, the results for the TGI in the assay with HOP-62 NSCLC, in the assay on MOLT-4 leukemia and with SF-295 CNS were 85 µM, 55.5 µM and 59.5 µM, respectively.
`O=C1OC(c2ccccc2)=N/C1=C\c1cccc2ccccc12`: the TGI with TK-10 renal, in the assay with M14 melanoma, with HCC-2998 colon, with A549 NSCLC, in the assay with SK-MEL-28 melanoma and in the assay with UACC-257 melanoma was above 100 µM in each case. In addition, the TGI with HOP-62 NSCLC, in the assay on MOLT-4 leukemia and in the assay with SF-295 CNS was above 100 µM each time.
Take `Nn1c(=O)n(Cc2ccccc2)n(-c2ccccc2)c1=O`: the TGI in the assay with TK-10 renal, in the assay on M14 melanoma, with HCC-2998 colon, with A549 NSCLC, in the assay on SK-MEL-28 melanoma and in the assay with UACC-257 melanoma was above 100 µM in each case. The TGI in the assay on HOP-62 NSCLC, with MOLT-4 leukemia and in the assay with SF-295 CNS was above 100 µM throughout.
As to `Cc1cccc(N2CCN(C(=S)c3ccc4c(c3)OCO4)CC2)c1`, the GI50 was 0.571 µM with MCF7 breast; 0.463 µM in the assay on M14 melanoma; 3.76 µM in the assay with HCC-2998 colon; 1.07 µM with A549 NSCLC; 2.19 µM with SK-MEL-28 melanoma; above 100 µM in the assay on UACC-257 melanoma. In addition, the GI50 in the assay on HOP-62 NSCLC was 0.883 µM; in the assay with MOLT-4 leukemia, 15.8 µM; in the assay on SF-295 CNS, 0.409 µM. The TGI in the assay on MCF7 breast, with M14 melanoma, with HCC-2998 colon, in the assay with A549 NSCLC, in the assay on SK-MEL-28 melanoma and in the assay on UACC-257 melanoma was above 100 µM throughout. Besides, the TGI in the assay with HOP-62 NSCLC, in the assay on MOLT-4 leukemia and in the assay on SF-295 CNS was above 100 µM in each case.
With `Cc1cc(S(=O)(=O)Nc2nnc(-c3ccccc3)c(-c3ccccc3)n2)c(SCC(N)=O)cc1Cl`, the GI50 in the assay on MCF7 breast was 36.4 µM; in the assay on TK-10 renal, above 100 µM; in the assay on M14 melanoma, 56.5 µM; in the assay on A549 NSCLC, above 100 µM; in the assay on SK-MEL-28 melanoma, 72.8 µM; in the assay with UACC-257 melanoma, 33.1 µM. Also, the GI50 is 52.5 µM in the assay with HOP-62 NSCLC, 24.4 µM in the assay on MOLT-4 leukemia and 28.5 µM with SF-295 CNS. The TGI in the assay with MCF7 breast was above 100 µM; in the assay with TK-10 renal, above 100 µM; in the assay on M14 melanoma it was above 100 µM; in the assay with A549 NSCLC, above 100 µM; with SK-MEL-28 melanoma, above 100 µM; in the assay with UACC-257 melanoma, 97.6 µM. The TGI in the assay with HOP-62 NSCLC is above 100 µM; in the assay on MOLT-4 leukemia it was 49.2 µM; in the assay on SF-295 CNS, 75 µM.
Regarding `CC(=O)[O-].CCN(CC)c1ccc(C=NCCN=Cc2ccc(N(CC)CC)cc2[O-])c([O-])c1.[Mn+3]`, the GI50 in the assay on TK-10 renal is 56.6 µM; in the assay on M14 melanoma it was 19.2 µM; in the assay on HCC-2998 colon, 19.7 µM; in the assay with A549 NSCLC, 34.5 µM; in the assay with SK-MEL-28 melanoma it was 19.2 µM; in the assay with UACC-257 melanoma, 23 µM. Further, the GI50 in the assay with HOP-62 NSCLC is 19.2 µM; in the assay with MOLT-4 leukemia, 36.5 µM; in the assay on SF-295 CNS, 27.7 µM. Further, the TGI in the assay on TK-10 renal was above 100 µM; in the assay on M14 melanoma, 35.5 µM; in the assay on HCC-2998 colon it was 35.9 µM; with A549 NSCLC it was above 100 µM; in the assay with SK-MEL-28 melanoma, 37.8 µM; in the assay on UACC-257 melanoma, 55.5 µM. Moreover, the TGI with HOP-62 NSCLC is 39.1 µM; in the assay on MOLT-4 leukemia, above 100 µM; in the assay on SF-295 CNS, 71.8 µM.
Take `OC[C@H]1CCCC1O` (stereo not given in full): the TGI with MCF7 breast, in the assay on TK-10 renal, in the assay on M14 melanoma, in the assay with HCC-2998 colon, in the assay with A549 NSCLC and with SK-MEL-28 melanoma was above 100 µM each time. Besides, the TGI in the assay with UACC-257 melanoma, in the assay on MOLT-4 leukemia and in the assay on SF-295 CNS was above 100 µM throughout.
Take `Clc1ccc(C2=Nn3c(COc4ccccc4Cl)nnc3SC2)c(Cl)c1`: the GI50 in the assay on MCF7 breast was 11 µM; in the assay on TK-10 renal, 26.5 µM; in the assay with M14 melanoma it was 16.4 µM; with A549 NSCLC, 23.6 µM; in the assay with SK-MEL-28 melanoma, 17 µM; in the assay with UACC-257 melanoma, 20.8 µM. The GI50 in the assay with HOP-62 NSCLC was 24.3 µM; in the assay on MOLT-4 leukemia, 22.3 µM; in the assay on SF-295 CNS, 10.3 µM. The TGI in the assay on MCF7 breast is above 100 µM; in the assay on TK-10 renal, 95.4 µM; in the assay on M14 melanoma it was 41.4 µM; in the assay with A549 NSCLC, above 100 µM; in the assay with SK-MEL-28 melanoma, 53.9 µM; with UACC-257 melanoma it was 60.9 µM. The TGI in the assay with HOP-62 NSCLC is 65 µM; in the assay with MOLT-4 leukemia, above 100 µM; in the assay on SF-295 CNS, 87 µM.
